#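 Following 48 hours of exposure in 96-well plates, responses at five concentrations were used to interpolate endpoints linearly. Abbreviation: GI50, concentration required for 50% inhibition of growth.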 Calls of active or inactive are those of the source. Rule as the data show it: active = GI50 up to about 1.1 µM and inactive = higher.
# Columns and labels:
# Assay in all cases: DTP human tumour cell line panel, 48 h
# HOP-18 = test system: HOP-18
# BT-549 = test system: BT-549
# DU-145 = test system: DU-145
# MDA-MB-231 = test system: MDA-MB-231
# MDA-MB-435 = test system: MDA-MB-435
# PC-3 = test system: PC-3
# KM-20L2 = test system: KM-20L2
# LXFL 529 = test system: LXFL 529
# RXF 631 = test system: RXF 631
SMILES,GI50 (HOP-18),GI50 (BT-549),GI50 (DU-145),GI50 (MDA-MB-231),GI50 (MDA-MB-435),GI50 (PC-3),GI50 (KM-20L2),GI50 (LXFL 529),GI50 (RXF 631)
O=C(O)/C=C/c1c[nH]cn1,> 500 µM (inactive),–,–,–,–,–,–,–,–
C/C(=C\c1ccc(Cl)cc1)C(C)(C)C(=O)O,–,> 100 µM (inactive),> 100 µM (inactive),> 100 µM (inactive),> 100 µM (inactive),> 100 µM (inactive),–,–,–
CCCCCCCCC[C@@H]1C[C@H](O)[C@H](Cc2ccccc2)N1C(=O)OC(C)(C)C,–,–,–,–,–,–,17.1 µM (inactive),17.2 µM (inactive),–
CN(CCO)CCC1COc2ccccc2O1 (configuration not stated),–,–,> 10 µM (inactive),> 10 µM (inactive),> 10 µM (inactive),> 10 µM (inactive),–,–,–
O=C(Nc1ccc(C2=NCCN2)cc1)c1cncc(C(=O)Nc2ccc(C3=NCCN3)cc2)c1,> 100 µM (inactive),–,–,–,–,–,> 100 µM (inactive),–,–
N=C(N)N/N=C\c1c(-c2cccc([N+](=O)[O-])c2)nc2sccn12,–,2.1 µM (inactive),5.16 µM (inactive),2.15 µM (inactive),2.59 µM (inactive),6.7 µM (inactive),–,–,–
COc1ccc(-c2nnc3c4ccccc4sn23)cc1,23.2 µM (inactive),–,–,–,–,–,29.2 µM (inactive),23.7 µM (inactive),–
N#C/C(=C\c1ccc(Br)cc1)c1nc(-c2cc3ccccc3oc2=O)cs1,–,7.29 µM (inactive),15.7 µM (inactive),10.1 µM (inactive),23.5 µM (inactive),21 µM (inactive),–,–,–
CC1=C2C(=C[C@H]3[C@]4(C)CCCC(C)(C)[C@H]4CC[C@]34O[C@H]24)OC1=O,–,> 100 µM (inactive),> 100 µM (inactive),> 100 µM (inactive),> 100 µM (inactive),> 100 µM (inactive),–,–,–
CC(C)CCC1CC2C(=O)N(c3ccccc3)C(=O)C2c2[nH]c3ccccc3c21 (configuration not stated),7.06 µM (inactive),–,–,–,–,–,–,6.05 µM (inactive),1.26 µM (inactive)
CC1(C)CNC(=O)C2(/C=N/C(C)(C)CNC(=O)C3(/C=N/1)CCCO3)CCCO2 (configuration not stated),–,> 10 µM (inactive),> 10 µM (inactive),> 10 µM (inactive),> 10 µM (inactive),> 10 µM (inactive),–,–,–
CC(C)(C)[Si](C)(C)OCC1CCC(n2cnc3c(N)ncnc32)O1 (configuration not stated),–,27 µM (inactive),73.8 µM (inactive),54.1 µM (inactive),25.9 µM (inactive),28.2 µM (inactive),–,–,–
N#CSCC1COc2ccccc2O1 (configuration not stated),–,–,> 10 µM (inactive),> 10 µM (inactive),> 10 µM (inactive),> 10 µM (inactive),–,–,–
CCC1CN2CCC1CC2 (configuration not stated),> 100 µM (inactive),–,–,–,–,–,> 100 µM (inactive),–,–
O=C1C2C(C(=O)N1OS(=O)(=O)c1ccccc1)N(Cc1ccccc1)C(=O)N2Cc1ccccc1 (configuration not stated),–,–,–,–,–,–,> 100 µM (inactive),> 100 µM (inactive),> 100 µM (inactive)
Brc1ccc(C2CC(c3cccc4ccccc34)=Nc3ccccc3S2)cc1 (configuration not stated),–,–,–,–,–,–,96.8 µM (inactive),> 100 µM (inactive),–
CC(=O)N(CCN1C(=O)c2ccccc2C1=O)CCN1C(=O)c2ccccc2C1=O,–,–,–,–,–,–,> 100 µM (inactive),> 100 µM (inactive),–
COc1c(Cl)cc(S(=O)O)cc1Cl,–,–,–,–,–,–,–,> 100 µM (inactive),–
CC(NNC(=O)c1cc[n+]([BH2-]C#N)cc1)c1ccc(F)cc1 (configuration not stated),–,> 100 µM (inactive),> 100 µM (inactive),> 100 µM (inactive),> 100 µM (inactive),> 100 µM (inactive),–,–,–
COc1cc(C2c3[nH]c4ccccc4c3[C@@H](Nc3ccc(F)cc3)[C@H]3COC(=O)N23)cc(OC)c1O (some centres not stated),–,1.36 µM (inactive),0.759 µM (active),3.44 µM (inactive),2.5 µM (inactive),1.91 µM (inactive),–,–,–
COc1ccc([I+]c2ccc(OC)cc2)cc1,–,–,99.5 µM (inactive),> 100 µM (inactive),> 56.5 µM (inactive),> 60 µM (inactive),–,–,–
COC(=O)[C@@H]1c2cc3c(c(O)c2[C@@H](OC)C[C@@]1(C)O)C(=O)c1c(O)cc2c(c1C3=O)OC1O[C@@]2(C)[C@H](O)[C@@H](N(C)C)[C@@H]1O,0.14 µM (active),–,–,–,–,–,0.175 µM (active),–,–
COc1cc(C(C)c2cc3c(cc2OCCO)OCO3)cc(OC)c1OC (configuration not stated),> 100 µM (inactive),–,–,–,–,–,1.43 µM (inactive),2.77 µM (inactive),–
Cn1c2ccccc2c(=O)c2c(O)cc3c(c21)C=CC(C)(C)O3 [NORACRONYCINE],13.7 µM (inactive),–,–,–,–,–,> 10.2 µM (inactive),–,–
O=C(O)CCCCCCCCC(=O)O [SEBACIC ACID],387 µM (inactive),–,–,–,–,–,> 50 µM (inactive),–,–

# — ChEMBL document CHEMBL1201862, “PubChem BioAssay data set” (2004)
